Laboratory results: patent US6413937B1, “Combinations for use in increasing the potency of a substrate for multidrug resistance related protein” (Dublin City University and Enterprise Ireland, priority 1996, dated 2002)

What was measured:
DLKP cell line = test: miniaturised in vitro colorimetric cell survival assay (acid phosphatase end-point), DLKP; format: cell-based, human
Procedure: (§1) All the results presented in this Example for the DLKP, A549 and OAW42-SR cell lines were derived using the same miniaturised in vitro calorimetric assay system. On Day 1 of the assay 1000 cells/well/100 μl were plated into 96-well plates. Cells were allowed to attach overnight and cell viability was visually assessed. […] NSAID plus chemotherapeutic drug) to be analysed were added onto the cells. The individual drugs were added separately in 50 μl quantities (4× stocks, to take into account the dilution effect of having 200 μl final volume in each well). The drugs were left on the cells for five further days (Day 7) and cell number was determined using the acid phosphatase end-point assay which uses p-nitrophenol phosphate as substrate (Martin, A. and Clynes, M. (1991) In Vitro Dev. Biol., 27A, 183-184). On Day 7 the culture medium was removed from the cells and they were washed once with phosphate buffered saline (PBS). […] After the incubation period 50 μl of 1N NaOH was added to each well to develop the colour. The plates were then read at 405 nm (reference 620 nm) on an ELISA plate-reader. […] All results are the cell survival means ±S.D. from a minimum of three experiments.

OAW42-SR cell line = test: miniaturised in vitro colorimetric cell survival assay, LRP overexpressing OAW42-SR; format: cell-based, human; details: vi) Adriamycin 147 ng/ml alone
Procedure: All the results presented in this Example for the DLKP, A549 and OAW42-SR cell lines were derived using the same miniaturised in vitro calorimetric assay system. On Day 1 of the assay 1000 cells/well/100 μl were plated into 96-well plates. Cells were allowed to attach overnight and cell viability was visually assessed. On Day 2 the two drugs (i.e. NSAID plus chemotherapeutic drug) to be analysed were added onto the cells. The individual drugs were added separately in 50 μl quantities (4× stocks, to take into account the dilution effect of having 200 μl final volume in each well). The drugs were left on the cells for five further days (Day 7) and cell number was determined using the acid phosphatase end-point assay which uses p-nitrophenol phosphate as substrate (Martin, A. and Clynes, M. (1991) In Vitro Dev. Biol., 27A, 183-184). On Day 7 the culture medium was removed from the cells and they were washed once with phosphate buffered saline (PBS). […] After the incubation period 50 μl of 1N NaOH was added to each well to develop the colour. The plates were then read at 405 nm (reference 620 nm) on an ELISA plate-reader. […] All results are the cell survival means ±S.D. from a minimum of three experiments.

COR L23 R (MRP+) cells = details: doxorubicin 10 mg/ml alone or with sulindac 20 mg/ml, 1, 2, 4 h, FIG. 3
Procedure: (§2) 10^6 COR L23 P (parental non-MRP resistant, MRP−) or COR L23 R (MRP resistant, MRP+) cells were added to 75 cm^3 vented flasks containing HEPES buffered Rosemount Park Memorial Institute (RPMI) medium and maintained at 37° C. in a 5% CO2 atmosphere. […] After three days of growth, doxorubicin (final concentration 10 mg/ml), sulindac (final concentration 20 mg/ml) or doxorubicin and sulindac were added to individual flasks. Samples were taken after 1, 2 and 4 h. and assayed for drug content.
(§3) The contents of each flask were washed twice with 5 ml of PBS and stored at −70° C. The flasks were thawed and 100 μl of water and 100 μl of 33% silver nitrate added to each and mixed for 5 min. […]
(§4) The extract was resuspended in 50 μl of methanol in the sample vial and loaded into the HPLC autosampler. […] The mobile phases were pumped through a C18 reversed-phase Ultrasphere XL (Beckman) HPLC column (4.6×70 mm) with absorbance measured at 253 nm. […] The amount of doxorubicin and sulindac present was quantified by measuring the peak height of these drugs and the internal standard. […] The concentration of doxorubicin in the samples was calculated from the) nd development standard line using the peak height ratio. The sulindac concentrations were calculated by the same method.

A549 cell line = test: miniaturised in vitro colorimetric cell survival assay (acid phosphatase end-point), A549; format: cell-based, human; details: for % cell survival: alone or + Adriamycin 20 ng/ml
Procedure: as §1

[1] = tested on: COR L23 P (non-MRP) cells; details: doxorubicin 10 mg/ml alone or with sulindac 20 mg/ml, 1, 2, 4 h, FIG. 4
Procedure: as §2, §3, §4

SP2 mouse myeloma cells = test: mouse tumour model, survival of Balb/c mice injected with SP2 cells; format: in vivo; details: groups of 8 Balb/c mice; i.p. once a day, five days a week; adriamycin 0.25 mg/kg, tolmetin 70 mg/kg; after 32 days
Procedure: The in vivo relevance of our findings was studied using a mouse tumour model. SP2 tumour cells were injected into 4 groups of mice. Groups of 8 male Balb/c mice 8 weeks old were maintained on normal diets. Animals were injected with 2 million SP2 mouse myeloma cells on day 1. On day 3 intraperitoneal injection with adriamycin, tolmetin or a combination of the two was begun. This continued once a day, five days a week for a total of 32 days. The agents were dissolved in PBS and prepared freshly twice per week. The animals were weighed and the average weight of the group was used to calculate the required concentration of the drugs. Adriamycin was administered to give a final concentration of 0.25 mg/kg, the tolmetin dose was 70 mg/kg. […] The results were expressed as the number of animals alive each day as a percentage of the original number of animals alive.
Group 1 received injections of the vehicle (PBS) alone, group 2, adriamycin at 0.25 mg/kg, group 3, tolmetin at 70 mg/kg and group 4 received both agents (adriamycin, 0.25 mg/kg and tolmetin, 70 mg/kg). After 32 days there were clear differences in the % survival between the groups (FIG. 5). […] Two mice remained in the adriamycin group but 5 survived to the end of the experiment from the combination group (group 4).

MRP-specific substrates = test: screen for enhancement of toxicity of MRP substrates by NSAIDs; format: cell-based; details: summary statements
[2] = tested on: GST prepared from DLKP cells; test: total GST assay with 1-chloro-2,4-dinitrobenzene; format: biochemical, human; details: 0.4 mM
Procedure: The other NSAIDs were tested in a total GST assay (Habig, W. H., and Jakoby, W. B., (1981); Methods Enzymol., 77: 218-231). Total cellular GST activity was assayed, using 1-chloro-2,4-dinitrobenzene as a substrate, according to the method of Habig, W. H., and Jakoby, W. B., (1981); supra. Due to spectrophotometric interference at 340 nm, caused by the majority of the NSAIDs, the assays were all performed at 360 nm, without any apparent effect on the rate of the control reaction The results are shown in Table 5.

MRP pump = biological target: T1, MRP pump (Homo sapiens, UniProt P33527); test: ATP-dependent transport of [3H]LTC4 into inside-out plasma membrane vesicles from HL60ADR cells; format: biochemical
T1 construct: inside-out plasma membrane vesicles prepared from HL60ADR cells; endogenous in cells; host or cells: HL60ADR cells (plasma membrane vesicles)
Procedure: To determine if the NSAIDs were acting directly on the MRP pump the uptake of [^3H]LTC4 into inside-out plasma membrane vesicles prepared from HL60ADR cells was examined using a rapid filtration procedure (Ishikawa,T., et al. (1994); J. Biol. Chem. 269 (46); 29085-29093). ATP-dependent transport of [^3H]LTC4 into the membrane vesicles was measured by a rapid filtration method using a Millipore sampling manifold. The membrane vesicles were thawed at 37° C. before use and kept on ice. The reaction components consisted of 0.25 M sucrose/10 mM Tris.HCl pH 7.4/1 mM ATP/10 mM MgCl2/10 mM creatine phosphate/ 110 μg/ml creatine kinase and 10 nM [^3H]LTC4, with 50 μg of the inside-out vesicle preparation, in a final volume of 110 μl. This suspension was incubated at 37° C., with gentle mixing, and aliquots, 20 μl, were taken at the indicated points. Those aliquots were diluted in 1 ml of ice-cold incubation buffer before being applied to 0.22 μm Millipore GSWP nitrocellulose filters, pre-soaked in ice-cold incubation buffer, under suction. The filters were subsequently washed with 3 ml ice-cold incubation buffer, and absorbed radioactivity was measured using a scintillation counter (Beckman). In control experiments ATP was replaced with 5μ-AMP to determine the ATP-dependent transport.

HL-60ADR cells = test: etoposide-induced apoptosis (nuclear fragmentation), HL-60ADR; format: cell-based; details: HL-60ADR (resistant); etoposide alone or co-treated with sulindac; FIG. 1
Procedure: An experiment was carried out to determine the effect of the NSAID sulindac on etoposide-induced apoptosis in two cell lines, namely HL-60S and HL-60ADR. These cell lines were donated by Dr. Melvin Center, Kansas State University, Manhattan Kans. 66506, U.S.A. For the HL-60S and ADR cell lines the percentage of apoptotic cells within the cell population, following drug exposure, was used to quantify toxicity. Cells were plated in fresh medium at a concentration of 10^6 cells/ml in a 24-well plate (Greiner) and drugs were then added to the wells. A 200 μl sample from each well was taken after 4 and 8 hrs. Samples were cytospun for 2 min at 500 rpm using a Shandon Cytofuge3. After air-drying the cytospins were stained using a Romanowsky staining kit, Rappi-Diff II (Langanbach), dried and mounted in DPX (BDH). Slides were studied on an Optiphot microscope (Nikon) fitted with a 40× objective, and visualised on a monitor via a Mitsubishi CCD-100E colour CCD-camera and a 0.6× relay lens. Nuclear fragmentation was used as a morphological marker for apoptosis and a minimum of 200 cells were assessed in at least three different microscopic fields. Results were expressed as the percentage of apoptotic cells within the population. Each experiment was repeated in duplicate.

DLKP-A cell line = test: miniaturised in vitro colorimetric cell survival assay, P-170 overexpressing DLKP-A; format: cell-based, human; details: v) Vincristine 1.0 μg/ml alone
Procedure: All the results presented in this Example for the DLKP, A549 and OAW42-SR cell lines were derived using the same miniaturised in vitro calorimetric assay system. On Day 1 of the assay 1000 cells/well/100 μl were plated into 96-well plates. Cells were allowed to attach overnight and cell viability was visually assessed. On Day 2 the two drugs (i.e. NSAID plus chemotherapeutic drug) to be analysed were added onto the cells. The individual drugs were added separately in 50 μl quantities (4× stocks, to take into account the dilution effect of having 200 μl final volume in each well). The drugs were left on the cells for five further days (Day 7) and cell number was determined using the acid phosphatase end-point assay which uses p-nitrophenol phosphate as substrate (Martin, A. and Clynes, M. (1991) In Vitro Dev. Biol., 27A, 183-184). On Day 7 the culture medium was removed from the cells and they were washed once with phosphate buffered saline (PBS). After washing, 100 μl of freshly prepared substrate-containing buffer (0.1% Triton X-100 in 0.1M sodium acetate, pH 5.5) was added to each well and the plates were left in an incubator at 37° C. for 2 h. After the incubation period 50 μl of 1N NaOH was added to each well to develop the colour. The plates were then read at 405 nm (reference 620 nm) on an ELISA plate-reader.
In the results given below the % cell survival in the drug-free control is 100%. All results are the cell survival means ±S.D. from a minimum of three experiments.
v) is an example of a positive NSAID plus a positive drug on a P-170 overexpressing cell line: DLKP-A;

T1 sequence (P33527 whole entry): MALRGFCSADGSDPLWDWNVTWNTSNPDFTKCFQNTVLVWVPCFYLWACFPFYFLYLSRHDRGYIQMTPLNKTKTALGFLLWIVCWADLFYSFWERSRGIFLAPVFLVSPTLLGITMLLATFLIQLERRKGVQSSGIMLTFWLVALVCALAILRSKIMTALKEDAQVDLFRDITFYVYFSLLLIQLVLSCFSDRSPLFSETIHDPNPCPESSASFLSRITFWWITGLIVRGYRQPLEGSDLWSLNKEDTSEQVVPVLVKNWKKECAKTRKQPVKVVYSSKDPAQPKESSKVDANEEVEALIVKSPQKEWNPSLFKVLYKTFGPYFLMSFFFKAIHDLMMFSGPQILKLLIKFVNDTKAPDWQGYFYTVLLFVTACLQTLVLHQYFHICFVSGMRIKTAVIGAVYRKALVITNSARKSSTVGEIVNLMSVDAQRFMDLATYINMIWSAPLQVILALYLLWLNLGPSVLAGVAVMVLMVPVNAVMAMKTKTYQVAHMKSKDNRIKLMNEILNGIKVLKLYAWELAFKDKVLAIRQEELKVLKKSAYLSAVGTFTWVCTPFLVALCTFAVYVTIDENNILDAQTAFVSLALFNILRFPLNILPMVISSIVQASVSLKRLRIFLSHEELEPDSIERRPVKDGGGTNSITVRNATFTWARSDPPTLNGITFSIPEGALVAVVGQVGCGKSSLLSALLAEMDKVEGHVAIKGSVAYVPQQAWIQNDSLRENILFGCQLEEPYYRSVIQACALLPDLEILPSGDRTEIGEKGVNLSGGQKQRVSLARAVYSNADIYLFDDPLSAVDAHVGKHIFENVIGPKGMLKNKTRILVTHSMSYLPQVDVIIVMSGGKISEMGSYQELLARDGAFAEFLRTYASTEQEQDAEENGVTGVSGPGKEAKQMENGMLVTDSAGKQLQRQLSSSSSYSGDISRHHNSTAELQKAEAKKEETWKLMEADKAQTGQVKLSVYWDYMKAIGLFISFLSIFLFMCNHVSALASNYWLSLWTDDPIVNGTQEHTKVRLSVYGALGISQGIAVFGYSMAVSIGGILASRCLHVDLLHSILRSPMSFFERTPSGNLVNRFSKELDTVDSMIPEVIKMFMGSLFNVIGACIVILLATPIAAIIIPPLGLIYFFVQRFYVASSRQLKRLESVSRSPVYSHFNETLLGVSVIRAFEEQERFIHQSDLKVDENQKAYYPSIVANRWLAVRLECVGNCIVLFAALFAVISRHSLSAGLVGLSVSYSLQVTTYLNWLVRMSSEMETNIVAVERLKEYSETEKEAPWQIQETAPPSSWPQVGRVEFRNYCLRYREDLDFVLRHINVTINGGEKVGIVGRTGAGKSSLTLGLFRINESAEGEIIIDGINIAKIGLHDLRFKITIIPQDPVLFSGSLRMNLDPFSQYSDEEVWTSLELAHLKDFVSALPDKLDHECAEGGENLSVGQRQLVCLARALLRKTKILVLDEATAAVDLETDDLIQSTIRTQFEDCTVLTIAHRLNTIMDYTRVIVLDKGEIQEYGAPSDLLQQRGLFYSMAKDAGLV

COc1cccc2c1C(=O)c1c(O)c3c(c(O)c1C2=O)C[C@@](O)(C(=O)CO)C[C@@H]3O[C@H]1C[C@H](N)[C@H](O)[C@H](C)O1 [Adriamycin, adriamycin]
% cell survival (DLKP cell line; i) Adriamycin 10 ng/ml alone): 60.35 ± 3.2%
% cell survival (OAW42-SR cell line): 47.41 ± 1.3%
doxorubicin level in the cells (COR L23 R (MRP+) cells): less doxorubicin is found in the cells
viability at 0.04 µg/mL (A549 cell line; Homo sapiens, A549, 120 h, ix) Adriamycin 40 ng/ml alone): 54 ± 6.05%
viability at 0.015 µg/mL (A549 cell line; Homo sapiens, A549, 120 h, viii) Adriamycin 15 ng/ml alone): 61 ± 5.05%
viability at 0.015 µg/mL (A549 cell line; Homo sapiens, A549, 120 h, x) Adriamycin 15 ng/ml alone): 47 ± 5.15%
viability at 0.04 µg/mL (A549 cell line; Homo sapiens, A549, 120 h, xi) Adriamycin 40 ng/ml alone): 46 ± 5.05%
viability at 0.015 µg/mL (A549 cell line; Homo sapiens, A549, 120 h, xii) Adriamycin 15 ng/ml alone): 70.7 ± 4.25%
viability at 0.015 µg/mL (A549 cell line; Homo sapiens, A549, 120 h, xiii) Adriamycin 15 ng/ml alone): 68 ± 5.82%
viability at 0.02 µg/mL (A549 cell line; Homo sapiens, A549, 120 h, xiv) Adriamycin 20 ng/ml alone): 78 ± 3.95%
viability at 0.015 µg/mL (A549 cell line; Homo sapiens, A549, 120 h, xv) Adriamycin 15 ng/ml alone): 89 ± 11.9%
viability at 0.017 µg/mL (A549 cell line; Homo sapiens, A549, 120 h, xvi) Adriamycin 17 ng/ml alone): 76.7 ± 5.4%
doxorubicin level in the cells [1]: high levels of doxorubicin are found in the cell
mice surviving to the end of the experiment (SP2 mouse myeloma cells): Two

Cc1ccc(C(=O)c2ccc(CC(=O)O)n2C)cc1 [Tolmetin, tolmetin]
enhancement of toxicity of MRP substrates (MRP-specific substrates): have been found to enhance the toxicity of MRP-specific substrates
% Inhibition of GST [2]: 55%
% cell survival (DLKP cell line; i) Tolmetin 6.25 μg/ml, alone or + Adriamycin 10 ng/ml): 104.38 ± 6.8%
% cell survival (DLKP cell line; i) Tolmetin 12.5 μg/ml, alone or + Adriamycin 10 ng/ml): 104.23 ± 6.2%
% cell survival (DLKP cell line; i) Tolmetin 25 μg/ml, alone or + Adriamycin 10 ng/ml): 100.49 ± 7.3%
% cell survival (A549 cell line; xiv) Tolmetin 8.50 μg/ml): 91.84 ± 10.99%
% cell survival (A549 cell line; xiv) Tolmetin 14.10 μg/ml): 97.59 ± 9.85%
% cell survival (A549 cell line; xiv) Tolmetin 24.20 μg/ml): 99.24 ± 10.35%
mice surviving to the end of the experiment (SP2 mouse myeloma cells): all but one from group 3 were dead
inhibition at 432 µM (MRP pump; 0.432 mM): 22%
inhibition at 863 µM (MRP pump; 0.863 mM): 50%

COc1cc([C@@H]2c3cc4c(cc3[C@@H](O[C@@H]3O[C@@H]5CO[C@@H](C)O[C@H]5[C@H](O)[C@H]3O)[C@H]3COC(=O)[C@H]23)OCO4)cc(OC)c1O [VP-16, etoposide]
etoposide-induced apoptosis, percentage of apoptotic cells (HL-60ADR cells): only a basal level of apoptosis is seen
% cell survival (DLKP cell line; iii) VP-16 100 ng/ml alone): 63.46 ± 1.4%

CC[C@]1(O)C[C@H]2CN(CCc3c([nH]c4ccccc34)[C@@](C(=O)OC)(c3cc4c(cc3OC)N(C=O)[C@H]3[C@@](O)(C(=O)OC)[C@H](OC(C)=O)[C@]5(CC)C=CCN6CC[C@]43[C@@H]65)C2)C1 [Vincristine, vincristine]
% cell survival (DLKP cell line; ii) Vincristine 1.0 ng/ml alone): 72.98 ± 3.5%
% cell survival (DLKP-A cell line): 89.12 ± 1.3%
